Patent US20250057989A1, “TMEM-MCD IN THE MINIMALLY INVASIVE ASSESSMENT OF THE ACTIVITY STATUS OF TMEM IN ITS DISSEMINATION OF TUMOR CELLS” (Albert Einstein College of Medicine, priority 2018, published 2025)
“Also recorded” adds a separate entry of the source.

Experiments:
circulating tumor cells = conditions: mice with breast cancer, chemotherapy-induced, oral administration; cited from earlier work
TMEM [1] = test: TMEM-MRI test (Uth) in PyMT mouse model, control vs rebastinib; assay type: in vivo; conditions: mice, FIGS. 2-3
Excerpt: FIGS. 3A-3E. Evaluation of TMEM-MRI assay sensitivity and its values as a companion diagnostic is illustrated by using TMEM-MRI to detect the effect of the commercially available TMEM inhibitor Rebastinib in PyMT mouse model. FIG. 3A depicts a schematic illustration and cohort composition of the MMTV-PyMT Control vs Rebastinib (Ctrl-Reb) transplantation model. FIG. 3B is a chart depicting upper threshold ratio (Uth) of Ctrl-and rebastinib (Reb)-treated tumors. FIG. 3C depicts extravascular dextran assay, showing TMEM association with leaky (lower row), but no association of TMEM with non-leaky (upper row) blood vessel. FIG. 3D is a chart depicting the comparison between extravascular dextran leakiness between Ctrl and Reb-treated tumors. FIG. 3E is a chart depicting circulating tumor cells in mice treated with rebastinib or vehicle control. […]
A new assay for TMEM activity has been developed and validated. […] Using intravenously injected Gd-DTPA, in a dynamic and quantitative assessment allowing assessment of the change in tissue permeability induced by TMEM, with adequate temporal and spatial resolution, the permeability change associated with the TMEM occurrence can be measured with high spatial resolution. […] TMEM facilitated increase in tissue diffusion, measured using the apparent diffusion constant or using Diffusion Tensor Imaging (DTI) may also be developed to detect TMEM. […]

TMEM [2] = conditions: mice with breast cancer, oral administration; cited from earlier work
tumor cells = conditions: mouse models of breast cancer; cited from earlier work
TMEM function (CTCs) = test: Clinical trial NCT02824575: oral rebastinib to inhibit TMEM function (CTCs) in breast cancer patients; assay type: in vivo, human

In the case of `CNC(=O)c1cc(Oc2ccc(NC(=O)Nc3cc(C(C)(C)C)nn3-c3ccc4ncccc4c3)c(F)c2)ccn1` [rebastinib, 4-[4-[(5-tert-butyl-2-quinolin-6-ylpyrazol-3-yl)carbamoylamino]-3-fluorophenoxy]-N-methylpyridine-2-carboxamide], the “cancer cell dissemination (circulating tumor cells in the blood, CTCs)” value (circulating tumor cells) is given as “inhibited”, the “TMEM activity detected by TMEM-MRI test” value (TMEM [1]) is given as “inhibition of TMEM activity” and the “chemotherapy-induced TMEM activity (multiphoton imaging of the burst)” value (TMEM [2]) is given as “inhibited”. For the same compound, the “dissemination of tumor cells” value (tumor cells) was “prevents dissemination of tumor cells” and the “tumor cell dissemination (CTCs) in patients” value (TMEM function (CTCs)) was “prevents dissemination of tumor cells; also recorded: most patients achieved complete inhibition of tumor cell dissemination”.
